Series [1] can be described thus: Antiproliferative activity against human PNT1A cells assessed as inhibition of cell growth measured after 48 hrs by Alamar blue dye based assay. The class given is toxicity.
Series [2] has as its system MCF7. Kind of series: Antiproliferative activity against human MCF7 cells assessed as inhibition of cell growth measured after 48 hrs by Alamar blue dye based assay. The note with it: MCF7, 48 h. The class given is functional.
Series [3] deals with MDA-MB-231. Kind of series: Antiproliferative activity against human MDA-MB-231 cells assessed as inhibition of cell growth measured after 48 hrs by Alamar blue dye based assay. The class given is functional. The note with it: MDA-MB-231, 48 h.
Series [4] concerns PNT1A. Put plainly: Induction of apoptosis in human PNT1A cells assessed as live cells incubated for 48 hrs by annexin V and 7-AAD staining based flow cytometry analysis (reference value: 99.69%). The class given is functional.
Series [5] has as its system PNT1A. Put plainly: Induction of apoptosis in human PNT1A cells assessed as early apoptotic cells incubated for 48 hrs by annexin V and 7-AAD staining based flow cytometry analysis (reference value: 0.04%). Type of series: functional.
The test system of series [6] is PNT1A. Put plainly: Induction of apoptosis in human PNT1A cells assessed as late apoptotic cells incubated for 48 hrs by annexin V and 7-AAD staining based flow cytometry analysis (reference value: 0.04%). Type of series: functional.
For series [7], the system named is PNT1A. Put plainly: Induction of apoptosis in human PNT1A cells assessed as necrosis incubated for 48 hrs by annexin V and 7-AAD staining based flow cytometry analysis (reference value: 0.22%). The class given is functional.
In series [8] the test system is MDA-MB-231. Put plainly: Induction of apoptosis in human MDA-MB-231 cells assessed as live cells incubated for 48 hrs by annexin V and 7-AAD staining based flow cytometry analysis (reference value: 99.61%). Type of series: functional.
The subject of series [9] is MDA-MB-231. Kind of series: Induction of apoptosis in human MDA-MB-231 cells assessed as early apoptotic cells incubated for 48 hrs by annexin V and 7-AAD staining based flow cytometry analysis (reference value: 0.18%). The class given is functional.
The subject of series [10] is MDA-MB-231. Kind of series: Induction of apoptosis in human MDA-MB-231 cells assessed as late apoptotic cells incubated for 48 hrs by annexin V and 7-AAD staining based flow cytometry analysis (reference value: 0.12%). Type of series: functional.
Series [11] deals with MDA-MB-231. Put plainly: Induction of apoptosis in human MDA-MB-231 cells assessed as necrosis incubated for 48 hrs by annexin V and 7-AAD staining based flow cytometry analysis (reference value: 0.09%). The class given is functional.
The test system of series [12] is MCF7. Put plainly: Induction of apoptosis in human MCF7 cells assessed as live cells incubated for 48 hrs by annexin V and 7-AAD staining based flow cytometry analysis (reference value: 99.14%). The class given is functional.
Series [13] concerns MCF7. Kind of series: Induction of apoptosis in human MCF7 cells assessed as early apoptotic cells incubated for 48 hrs by annexin V and 7-AAD staining based flow cytometry analysis (reference value: 0.14%). Type of series: functional.
In series [14] the test system is MCF7. Put plainly: Induction of apoptosis in human MCF7 cells assessed as late apoptotic cells incubated for 48 hrs by annexin V and 7-AAD staining based flow cytometry analysis (reference value: 0.68%). Type of series: functional.
Series [15] concerns MCF7. Put plainly: Induction of apoptosis in human MCF7 cells assessed as necrosis incubated for 48 hrs by annexin V and 7-AAD staining based flow cytometry analysis (reference value: 0.03%). Type of series: functional.
A further series has as its target T1, Aromatase (Homo sapiens, UniProt P11511).
T1 sequence (P11511 whole entry): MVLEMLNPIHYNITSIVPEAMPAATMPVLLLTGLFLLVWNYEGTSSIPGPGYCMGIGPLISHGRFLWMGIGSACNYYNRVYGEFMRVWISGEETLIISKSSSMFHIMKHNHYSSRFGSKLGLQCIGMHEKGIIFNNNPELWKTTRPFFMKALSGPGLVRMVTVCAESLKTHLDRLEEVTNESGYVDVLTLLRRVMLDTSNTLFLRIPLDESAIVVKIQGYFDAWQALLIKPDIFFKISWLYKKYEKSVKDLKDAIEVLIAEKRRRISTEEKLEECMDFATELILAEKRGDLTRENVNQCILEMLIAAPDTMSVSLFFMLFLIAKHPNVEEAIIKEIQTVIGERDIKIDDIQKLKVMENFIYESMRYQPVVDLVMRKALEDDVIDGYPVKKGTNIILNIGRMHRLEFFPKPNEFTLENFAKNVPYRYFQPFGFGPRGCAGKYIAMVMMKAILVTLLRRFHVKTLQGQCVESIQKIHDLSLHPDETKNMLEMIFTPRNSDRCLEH
Put plainly: Inhibition of human Aromatase by fluorimetric assay.

A short description of series [16]: Genotoxicity in human MCF7 cells assessed as abnormal tail nuclei measured after 48 hrs by ethidium bromide staining based fluorescent microscopic analysis. Conditions: mcf7, 48 h. Type of series: toxicity, cell-based.
The nature of series [17]: Genotoxicity in human MCF7 cells assessed as appearance of damaged DNA structures measured after 48 hrs by ethidium bromide staining based fluorescent microscopic analysis. Type of series: toxicity, cell-based. The note with it: mcf7, 48 h.
Series [18] in a line: Genotoxicity in human MDA-MB-231 cells assessed as appearance of damaged DNA structures measured after 48 hrs by ethidium bromide staining based fluorescent microscopic analysis. Type of series: toxicity, cell-based. Conditions: mda-mb-231, 48 h.
Series [19] is described as follows: Genotoxicity in human MDA-MB-231 cells assessed as abnormal tail nuclei measured after 48 hrs by ethidium bromide staining based fluorescent microscopic analysis. The class given is toxicity, cell-based. The note with it: mda-mb-231, 48 h.

Each structure is given as a SMILES string.

The record followed here is ChEMBL document CHEMBL5523675, “Novel mitochondrial and DNA damaging fluorescent Calix[4]arenes bearing isatin groups as aromatase inhibitors: Design, synthesis and anticancer activity” (Bioorg Med Chem, 2024).

In the case of `C[n+]1ccc(/C=C/c2cc3c(O)c(c2)Cc2cc(C(C)(C)C)cc(c2OCCCn2cc(CBr)nn2)Cc2cc(/C=C/c4cc[n+](C)cc4)cc(c2O)Cc2cc(C(C)(C)C)cc(c2OCCCn2cc(CBr)nn2)C3)cc1`, the IC50 at 48 h in series [1] amounted to 86.4 µM. The IC50 was 28.4 µM in the series on MCF7 [2] and 22.8 µM in the series on MDA-MB-231 [3].
Turning to `C[n+]1ccc(/C=C/c2cc3c(O)c(c2)Cc2cc(C(C)(C)C)cc(c2OCCCn2cc(CN4C(=O)C(=O)c5ccccc54)nn2)Cc2cc(/C=C/c4cc[n+](C)cc4)cc(c2O)Cc2cc(C(C)(C)C)cc(c2OCCCn2cc(CN4C(=O)C(=O)c5ccccc54)nn2)C3)cc1.[I-].[I-]`, the IC50 at 48 h in series [1] was 77.6 µM. Moreover, the IC50 in the series with MCF7 [2] was 19.2 µM; in the series on MDA-MB-231 [3] it was 9.24 µM; at Aromatase, 518 nM. The Live cells in the series on PNT1A [4] came to 99.14%. For the same compound, the Activity with PNT1A [5] came to 0.16%; in the series with PNT1A [6], 0.08%; with PNT1A [7] it was 0.63%; in the series on MDA-MB-231 [8], 91.42%; in the series with MDA-MB-231 [9], 0.26%; in the series with MDA-MB-231 [10], 1.66%. Besides, the Activity was 6.66% with MDA-MB-231 [11]; 50.95% with MCF7 [12]; 8.09% in the series on MCF7 [13]; 37.69% with MCF7 [14]; 3.27% in the series on MCF7 [15]; “Toxic” in series [16]. The Activity result in [17], in series [18] and in series [19] was “Toxic” throughout.
Take `C[n+]1ccc(/C=C/c2cc3c(O)c(c2)Cc2cc(C(C)(C)C)cc(c2OCCCn2cc(CN4C(=O)C(=O)c5cc(I)ccc54)nn2)Cc2cc(/C=C/c4cc[n+](C)cc4)cc(c2O)Cc2cc(C(C)(C)C)cc(c2OCCCn2cc(CN4C(=O)C(=O)c5cc(I)ccc54)nn2)C3)cc1.[I-].[I-]`: the IC50 at 48 h in series [1] came to 72.5 µM. Moreover, the IC50 in the series with MCF7 [2] is 15.1 µM; with MDA-MB-231 [3], 3.98 µM; against Aromatase, 1030 nM. Besides, the Live cells in the series with PNT1A [4] is reported as 96.68%. Moreover, the Activity with PNT1A [5] is 2.22%; with PNT1A [6], 1.09%; in the series with PNT1A [7], 0.02%; with MDA-MB-231 [8], 84.61%; with MDA-MB-231 [9], 0.21%; in the series with MDA-MB-231 [10], 1.57%. In addition, the Activity in the series on MDA-MB-231 [11] is recorded as 13.61%; in the series on MCF7 [12], 49.15%; in the series with MCF7 [13] it was 12.97%; in the series on MCF7 [14], 36.55%; in the series with MCF7 [15] it was 1.33%; in series [16], “Toxic”. Moreover, the Activity entry in series [17], in series [18] and in series [19] was “Toxic” throughout.
Consider `C[n+]1ccc(/C=C/c2cc3c(O)c(c2)Cc2cc(C(C)(C)C)cc(c2OCCCn2cc(CN4C(=O)C(=O)c5cc(F)ccc54)nn2)Cc2cc(/C=C/c4cc[n+](C)cc4)cc(c2O)Cc2cc(C(C)(C)C)cc(c2OCCCn2cc(CN4C(=O)C(=O)c5cc(F)ccc54)nn2)C3)cc1.[I-].[I-]`, for which, in series [1], the IC50 at 48 h turned out to be 62.9 µM. The IC50 was determined as 11.6 µM with MCF7 [2], 5.59 µM in the series on MDA-MB-231 [3] and 711 nM against Aromatase. Moreover, in the series with PNT1A [4], the Live cells is recorded as 93.92%. The Activity amounted to 5.69% in the series with PNT1A [5]; 0.28% in the series with PNT1A [6]; 0.1% with PNT1A [7]; 64.85% with MDA-MB-231 [8]; 0.11% in the series with MDA-MB-231 [9]; 2.03% in the series on MDA-MB-231 [10]. Besides, the Activity with MDA-MB-231 [11] is 33.01%; with MCF7 [12], 41.92%; in the series on MCF7 [13] it was 2.18%; in the series on MCF7 [14] it was 45.79%; in the series with MCF7 [15] it was 10.11%; in series [16], “Toxic”. Moreover, the Activity result in series [17], in series [18] and in series [19] was “Toxic” each time.
In the case of `Cc1ccc2c(c1)C(=O)C(=O)N2Cc1cn(CCCOc2c3cc(C(C)(C)C)cc2Cc2cc(/C=C/c4cc[n+](C)cc4)cc(c2O)Cc2cc(C(C)(C)C)cc(c2OCCCn2cc(CN4C(=O)C(=O)c5cc(C)ccc54)nn2)Cc2cc(/C=C/c4cc[n+](C)cc4)cc(c2O)C3)nn1.[I-].[I-]`, the IC50 at 48 h in [1] turned out to be 74.9 µM. The IC50 is 10.2 µM in the series on MCF7 [2], 5.23 µM with MDA-MB-231 [3] and 218 nM against Aromatase. The Live cells in the series with PNT1A [4] is 95.6%. For the same compound, the Activity with PNT1A [5] is given as 3.99%; in the series on PNT1A [6] it was 0.35%; in the series on PNT1A [7], 0.06%; in the series on MDA-MB-231 [8], 83.89%; with MDA-MB-231 [9], 0.02%; with MDA-MB-231 [10], 1.31%. In addition, the Activity is 14.78% with MDA-MB-231 [11]; 71.51% in the series with MCF7 [12]; 10.49% in the series with MCF7 [13]; 15.04% in the series on MCF7 [14]; 2.96% with MCF7 [15]; “Toxic” in series [16]. For the same compound, the Activity entry in series [17], in series [18] and in [19] was “Toxic” each time.
Take `C[n+]1ccc(/C=C/c2cc3c(O)c(c2)Cc2cc(C(C)(C)C)cc(c2OCCCn2cc(CN4C(=O)C(=O)c5cc(Br)ccc54)nn2)Cc2cc(/C=C/c4cc[n+](C)cc4)cc(c2O)Cc2cc(C(C)(C)C)cc(c2OCCCn2cc(CN4C(=O)C(=O)c5cc(Br)ccc54)nn2)C3)cc1.[I-].[I-]`: in series [1], the IC50 at 48 h is 57.2 µM. Further, the IC50 was 10.1 µM in the series on MCF7 [2], 3.78 µM in the series with MDA-MB-231 [3] and 315 nM against Aromatase. Besides, in the series with PNT1A [4], the Live cells came out at 96.14%. Further, the Activity in the series with PNT1A [5] amounted to 2.6%; with PNT1A [6], 1.13%; with PNT1A [7], 0.14%; in the series with MDA-MB-231 [8] it was 87.12%; in the series with MDA-MB-231 [9], 0.4%; in the series with MDA-MB-231 [10], 1.6%. In addition, the Activity with MDA-MB-231 [11] was 10.87%; in the series with MCF7 [12], 40.42%; with MCF7 [13] it was 34.66%; in the series with MCF7 [14], 24.62%; with MCF7 [15] it was 0.3%; in [16], “Toxic”. For the same compound, the Activity entry in [17], in [18] and in series [19] was “Toxic” in each case.
Consider `O=c1[nH]cc(F)c(=O)[nH]1` [FLUOROURACIL], for which the IC50 at 48 h in series [1] stood at 192 µM. Besides, the IC50 in the series on MCF7 [2] was 35.3 µM; in the series with MDA-MB-231 [3], 6.81 µM.
